Like-named read-outs stand apart in the source and are kept apart here.
Columns and labels:
Assay type in all cases: in vivo, human
itching = conditions: person
Experimental: (§1) The method of the invention has been carried out with respect to a number of skin disorders. The patients were treated with one of two peptides, each at a concentration of 50 μg/gr cream (unless otherwise indicated):
(§2) The cream was manufactured by Amiga LTD, Israel, and contains the following components:
1. A person suffered from a strong itching sensation on the skin all over the body for no apparent reason.
2. A person suffered from a red rash and itching sensation on their breast. ZEP4 (500 μg/gr cream) was applied twice in a period of 2 hours. • Results: relief from itching within 10 minutes.
3. A person suffered from a strong itching sensation in the lower limbs which sometimes spread to the abdomen and back. […] I. Skin Infection

Herpes zoster = conditions: person, 50 μg/gr cream
Experimental: as §1, §2
1. A person was diagnosed with Herpes zoster (shingles), which appeared as a painful, circumferential rash in the abdominal area. The patient had been on antibiotics, with no improvement.
2. A person was diagnosed with Herpes zoster, which appeared as painful lesions with skin edema on the mid back area, appearing several times a year. […] Decrease in the skin rash and the degree of the sore and swelling and a shortening of the time of recovery (healing).

mosquito bites = system: mosquito bites
Experimental: as §1, §2
8. males and four females suffered from mosquito bites. […]
9. 3 subjects suffering from mosquito bites were treated with ZEP3.

Herpes simplex = system: Herpes simplex
Experimental: as §1, §2
5. A person suffered for many years from Herpes simplex on the neck, with no relief from commercial remedies. ZEP3 was applied topically once a day to the lesions. • Results: relief in itching and skin rash within 10-20 min.
6. person two was diagnosed with Herpes simplex.
7. person one was diagnosed with Herpes simplex.
8. person four suffered from Herpes simplex from childhood.
9. A person suffered from Herpes simplex lesions on the lips and face. […] 1-2 applications cause the lesions to disappear.
10. A person suffered from Herpes simplex on the lips, mainly when under pressure. […] The blisters disappeared after 24 hours.
11. A person suffered from Herpes simplex on the lips. ZEP3 (500 μg/gr cream) was topically applied several times during the day on the wound. • Results: the person felt relief after several minutes. The itching and redness lessened immediately and the wound disappeared after 36 hours.
12. 7 subjects suffering from Herpes simplex were treated with ZEP3.
13. A person suffered from Herpes simplex lesions on the lips.
14. A person has a festering Herpes simplex lesion. Generally, 10 days are required for recuperation.
15. A person suffered intermittingly from Herpes simplex on the lips, with blisters.

psoriasis = conditions: person
Experimental: as §1, §2
1. A person suffered from intermittent psoriasis on their head over many years. […] The patient believes that the frequency of the outbreaks has been reduced.
2. A person suffered from psoriasis on the hands. […] The patient believes that a 20% improvement has occurred over 2 weeks.
3. A person suffered from psoriasis in the anus.
4. A person suffered from extensive psoriasis at various locations. ZEP3 (500 μg/gr cream) was applied to the sores as needed. • Results: the itching ceased within 12 hours.
5. A person suffered from chronic psoriasis on the elbow.
6. A person suffered from severe psoriasis at various locations. They regularly went for treatments to the Dead Sea in Israel.

bee stings = conditions: both hands stung, 500 μg/gr cream once to the other hand, about 10 minutes after sting
Experimental: as §1, §2
3. A person was stung by a bee.
4. person four was stung by bees on both hands.
5. person three was stung by bees on both hands.

burns = system: burns
Experimental: as §1, §2
1. A person was lightly burned on the back of the hand which touched a very hot object. ZEP4 was immediately applied to the burn site. • Results: the burn mark disappeared within 1 hour. No additional treatments were necessary.
2. A person was severely burned by boiling water on the palm of the hand. […] At the end of 2 weeks there was no sign of the burn, nor thereafter.
3. person two was lightly burned on their finger from boiling oil. […] No further treatments were necessary.
5. A person was burnt on their hand from an oven. […] The burn took on a light brown color.
6. 4 light burn cases, three from touching a hot surface and one from a chemical substance in a laboratory, were treated with ZEP3.
8. person three with irritated skin on the hand due to the rubbing of a watch band. The irritated skin came into contact with a chemical substance (used as a disinfectant). A severe redness developed similar to a burn, and a strong itching feeing. […] D. Oral Cavity

skin infection = system: skin infection
Experimental: as §1, §2
1. person two suffered from an infection on the wrist of the left hand, apparently an allergic reaction to a watch band. Large spots appeared around the wrist accompanied by redness.
2. person three suffered from an infection on the wrist of the left hand, apparently an allergic reaction to a watch band. Large spots appeared around the wrist accompanied by redness and itching.
3. 2 cases of infected skin wounds.

radiation burns = conditions: person two after mastectomy, severe radiation burns; 500 μg/gr cream several times per day
Experimental: as §1, §2
4. A person with breast cancer received radiation treatment. The person suffered from radiation burns in a large skin area with blisters and open wounds. ZEP4 was applied directly to the wounds over a period of 12 days, 1-2 times per day. • Results: an immediate (˜1 minute) ease in the itching and burning sensation.
7. person two with breast cancer after mastectomy received radiation treatment. The person suffered from severe radiation burns.

[1] = abdominal rash, 2-3 times a day
[2] = person, lesions on lips and face, 50 μg/gr cream
[3] = person, lips, 500 μg/gr cream several times a day
[4] = person, neck, 50 μg/gr cream once a day
[5] = chronic psoriasis on elbow, 500 μg/gr cream
[6] = intermittent psoriasis on head, 500 μg/gr cream once or twice a day
[7] = person three, wrist infection, allergic reaction to watch band, 500 μg/gr cream several times a day

With pGLU-ASN-TRP-LYS-C8 [ZEP3] the clinical outcome (itching; strong itching all over the body, 500 μg/gr cream a number of times) was “immediate relief from itching, which ceased”, the clinical outcome (itching; strong itching in lower limbs, 500 μg/gr cream as needed) was “immediate relief” and the clinical outcome (Herpes zoster; [1]) was “a decrease in the skin redness and the degree of the swelling and itching”. For the same substance, the “time to improvement in the rash” value (Herpes zoster; [1]) was 2 to 10 min, the clinical outcome (Herpes zoster; lesions with skin edema on mid back, applied 4-5 times) was “reduced skin edema and an increase in the intervals between attacks. Decrease in the skin rash and the degree of the sore and swelling and a shortening of the time of recovery (healing)” and the clinical outcome (mosquito bites; 3 subjects, 50 μg/gr cream) was “found to be therapeutic both for the itching and for the healing”. For the same substance, the clinical outcome (mosquito bites; two males and four females, 30-57 years old, (500 μg/gr cream) as needed) was “an immediate relief from the itching sensation was felt”, the clinical outcome (Herpes simplex; 7 subjects, 50 μg/gr cream) was “found to be therapeutic” and the “clinical outcome as compared to treatment with Zovirax®” value (Herpes simplex; person four, 50 μg/gr cream several times) was “Rapid drying of the lesion, shrinking of swelling and swift conclusion of the outbreak”. The recuperation period (Herpes simplex; person, festering lesion, generally 10 days required, 500 μg/gr cream as needed) was “shortened by half”, the clinical outcome (Herpes simplex; [2]) was “the lesions now appear only infrequently” and the “number of applications that cause the lesions to disappear” value (Herpes simplex; [2]) was 1-2 applications. For the same substance, the clinical outcome (Herpes simplex; person, lips with blisters, 500 μg/gr cream as needed) was “immediate relief; the blisters stopped developing and disappeared after several hours”, the clinical outcome (Herpes simplex; [3]) was “felt relief after several minutes. The itching and redness lessened immediately” and the “time until wound disappeared” value (Herpes simplex; [3]) was 36 h. For the same substance, the clinical outcome (Herpes simplex; [4]) was “The lesions disappeared and did not return during the last 5 years”, the “time to relief in itching and skin rash” value (Herpes simplex; [4]) was 10 to 20 min and the clinical outcome (Herpes simplex; person, pricking sensation on upper lip, 500 μg/gr cream as needed) was “the pricking sensation ceased and Herpes lesions did not develop”. For the same substance, the clinical outcome (psoriasis; [5]) was “the flaking of the skin disappeared and the normal skin appearance returned”, the “time until itching terminated” value (psoriasis; [5]) was 2 h and the “time until itching ceased” value (psoriasis; extensive psoriasis, 500 μg/gr cream as needed) was at most 12 h. For the same substance, the clinical outcome (psoriasis; [6]) was “the disease disappeared”, the time to relief (psoriasis; [6]) was 10 to 20 min and the “time until relief is felt” value (psoriasis; psoriasis in the anus, (500 μg/gr cream) once a day) was 4 days. For the same substance, the clinical outcome (psoriasis; psoriasis in the anus, (500 μg/gr cream) once a day, stopped several days, repeated for 4 days) was “the psoriasis disappeared”, the clinical outcome (psoriasis; psoriasis on hands, 500 μg/gr cream once a day) was “feels relief; the skin is pleasant feeling and not itchy” and the “improvement as believed by the patient” value (psoriasis; psoriasis on hands, 500 μg/gr cream once a day, over 2 weeks) was 20%. The clinical outcome (bee stings; person four) was “the swelling shrunk and the redness decreased to an identical degree on each hand”, the clinical outcome (bee stings; person three) was “the swelling shrunk and the redness decreased to an identical degree on each hand” and the clinical outcome (burns; 4 light burn cases (three hot surface, one chemical substance), 50 μg/gr cream) was “found to be therapeutic both for the pain and for the healing”. The clinical outcome (burns; person three, irritated skin on hand contacted a disinfectant, burn-like redness and itching, ZEP4 and ZEP3 each 500 μg/gr cream) was “immediate relief from the redness and itching”, the clinical outcome (skin infection; 2 cases of infected skin wounds, 50 μg/gr cream) was “aided in the healing of the wounds” and the clinical outcome (skin infection; [7]) was “immediate relief from the itching”. For the same substance, the “time to decrease in redness” value (skin infection; [7]) was at most 24 h and the clinical outcome (radiation burns) was “felt immediate relief”.

Source: patent publication US9012397B2 (priority 2011, dated 2015)
